Reference: patent publication US8017374B2, “Processes for decolorization of colored effluents” (priority 2005, dated 2011)

Experiments:
[1] = tested on: culture supernatant of NIOCC 2a; assay: Decolorization using culture supernatant of NIOCC 2a; assay type: biochemical, unidentified marine fungus NIOCC #2a (MTCC 5159); settings: dyes 0.02-0.04%, 60° C., pH 6.0, supernatant concentrated two-fold
Procedure: The process of decolorization of various dyes and effluents using the cell-free supernatant involves addition of filter sterilized culture supernatant of the said fungus grown in the presence of various dyes, inducers and dilute effluents. The decolorization of the effluents was monitored spectrophotometrically at appropriate wavelengths up to 12 hours. The uninoculated culture medium containing these dyes served as control.
NIOCC 2a was grown in B&K medium prepared in sea water of 25 ppt salinity (the pH of the medium being 7.0) for 6 days. It was supplemented with 1% textile effluent B on day 6. The culture supernatant on day 12 was collected and concentrated two-fold. The concentrated enzyme was incubated with various dyes used at concentrations as given in Example 2 and the effluents were used at 10% only. The decolorization was monitored at 6 and 12 hours by incubating the samples in a water bath at 60° C. and pH 6.0 The absorbance maxima specific to that particular dye/effluent was monitored for 6 to 12 hours.

[2] = Decolorization using exopolymeric substance produced by NIOCC 2a; set-up: species or system unidentified marine fungus NIOCC #2a (MTCC 5159); settings: 24 hours, dyes 0.015-0.04%, 10 mg EPS, 60° C., phosphate buffer pH 6
Procedure: The process of decolorization of effluents using the exoploymeric substance (EPS) produced by the fungus is carried out using separated and freeze dried EPS. A known amount of EPS is incubated with appropriately diluted effluents for a period of 6 to 12 hours. The decolorization is monitored in the supernatant after centrifugation. While using the EPS, about 10 mg of EPS (dry weight) is contacted with 3 ml of effluent having the final concentration of 10%.
The exopolymeric substance (EPS) of the fungus NIOCC 2a was prepared as follows: 1 liter of a 12 day old culture filtrate was frozen for 12 to 24 hours and allowed to thaw. The EPS precipitated on thawing and was removed by decantation. Methanol at a final concentration of 70% was added to the supernatant to further precipitate the remaining EPS from the culture supernatant. The precipitated EPS was collected by centrifugation and the pooled precipitate was lyophilized. To 10 mg of this EPS, various dyes and effluents were added at concentrations as given in example 2 and incubated at 60° C. with phosphate buffer at pH 6. […]

[3] = tested on: NIOCC 2a; assay: Enhancement of laccase production by inducers; laccase activity in culture supernatant (ABTS); settings: for LACCASE ACTIVITY: dyes as inducers at 0.015-0.04%;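 on all read-outs here: supernatant laccase measured by 2 mM ABTS oxidation in 100 mM glycine-HCl buffer at pH 3, absorbance at 405 nm tracked over time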
Procedure: The laccase activity in the culture supernatant was measured using 2 mM ABTS prepared in 100 mM glycine-HCl buffer (pH 3) at 405 nm spectrophotometrically as a function of time.
In order to enhance the laccase production by MTCC 5159 various inducers were added to a 3 day old culture grown in B&K medium prepared in 25 ppt sea water having a pH of 7.0. The inducers such as p-anisidine, catechol, guaiacol, ferulic acid, vanillic acid, veratryl alcohol and 2,5 dimethyl aniline were used at a final concentration of 1 mM. […] The laccase activity in the culture supernatant was measured at an interval of 3 days up to 21 days as described in Example 1.
Dyes which are generally used for decolorization were also tested for their laccase induction properties. Trypan blue, aniline blue and remazol brilliant blue R at a final concentration of 0.04%, methylene blue, crystal violet, brilliant green and congo red at 0.02% and reactive orange 176 at 0.015% final concentration were added to B & K medium prepared in 25 ppt sea water having the pH of 7.0.

[4] = tested on: fungus MTCC 5159; assay: Decolorization of dyes and effluents by growing fungus culture; assay type: cell-based, unidentified marine fungus NIOCC #2a (MTCC 5159); settings: FIG. 2a, up to day 6
From the text: Black liquor is dark brown in color and after decolorization by the fungus MTCC 5159, it turns light brown after 6 days. Similarly molasses spent wash is dark brown and turns straw color after 6 days. Textile effluents A, originally magenta in color was comparatively difficult to decolorize whereas Textile effluent B, originally bottle green in color was comparatively easy to decolorize to a light green color after 6 days. The process for the decolorization of various effluents utilizing the fungal biomass involves addition of sterilized, appropriately diluted effluents to a 6 day-old culture of NIOCC 2a growing in B&K medium. The degradation of effluents and various dyes is monitored spectrophotometrically by removing an aliquot of sample from these cultures and measuring changes in absorbance at appropriate wavelengths. The decolorization is measured every alternate day up to 6 days. […]
The fungus MTCC 5159 was tested for its ability to decolorize various dyes and effluents by monitoring the change in its specific absorbance maxima every alternate day over a period of 6 days after the dye/effluents were added. […] The extent of decolorization was recorded as residual color (in percentage). […] Effluents like textile effluent A, B, MSW and black liquor were also monitored at their absorbance maxima in B&K medium, at 505, 663, 663 and 317 nm respectively.

Molecule | PERCENT DECOLORIZATION ([1]; 6 hours) | PERCENT DECOLORIZATION ([1]; 12 hours) | PERCENT DECOLORIZATION ([2]; listed as Congo red) | PERCENT DECOLORIZATION ([2]; listed as congo red) | comparison of inducers of laccase production, in words [3] | PERCENT DECOLORIZATION [2] | LACCASE ACTIVITY ([3]; day 3) | LACCASE ACTIVITY ([3]; day 6) | LACCASE ACTIVITY ([3]; day 8) | LACCASE ACTIVITY ([3]; day 10) | LACCASE ACTIVITY ([3]; day 12) | LACCASE ACTIVITY ([3]; day 14) | LACCASE ACTIVITY ([3]; day 16) | LACCASE ACTIVITY ([3]; day 18) | comparison of dye degradation by the fungus culture, in words [4]
Nc1c(/N=N/c2ccc(-c3ccc(/N=N/c4cc(S(=O)(=O)O)c5ccccc5c4N)cc3)cc2)cc(S(=O)(=O)O)c2ccccc12 [Congo Red, congo red] | 54% | 47% | 29% | not decolorized to these extents |  |  |  |  |  |  |  |  |  |  | 
O=S(=O)([O-])[O-].[Cu+2] [Copper sulphate] |  |  |  |  | best inducer |  |  |  |  |  |  |  |  |  | 
CN(C)c1ccc(C(=C2C=CC(=[N+](C)C)C=C2)c2ccc(N(C)C)cc2)cc1 [Crystal Violet, crystal violet] | 44% | 54% |  |  |  | 80% |  |  |  |  |  |  |  |  | 
CN(C)c1ccc2nc3ccc(=[N+](C)C)cc-3sc2c1 [Methylene Blue, methylene blue] | 3% | 5% |  |  |  |  |  |  |  |  |  |  |  |  | 
Nc1c(S(=O)(=O)[O-])cc(Nc2cccc(S(=O)(=O)CCOS(=O)(=O)[O-])c2)c2c1C(=O)c1ccccc1C2=O.[Na+].[Na+] [RBBR, remazol brilliant blue R] | 67% | 46% |  |  |  | 100% | 3 UL^−1 | 43 UL^−1 | 0 UL^−1 | 0 UL^−1 | 0 UL^−1 | 0 UL^−1 | 0 UL^−1 | 0 UL^−1 | 
Cc1cc(-c2ccc(/N=N/c3c(S(=O)(=O)O)cc4cc(S(=O)(=O)O)cc(N)c4c3O)c(C)c2)ccc1/N=N/c1c(S(=O)(=O)O)cc2cc(S(=O)(=O)O)cc(N)c2c1O [Trypan Blue, Trypan blue] | 22% | 25% |  |  |  | 79% |  |  |  |  |  |  |  |  | 
Reactive orange 176 [RO 176] |  |  |  |  |  | 100% | 21 UL^−1 | 8 UL^−1 | 335 UL^−1 | 949 UL^−1 | 904 UL^−1 | 1158 UL^−1 | 1108 UL^−1 | 1180 UL^−1 | least degraded
aniline blue | 55% | 40% |  |  |  | 75% | 12 UL^−1 | 67 UL^−1 | 21 UL^−1 | 825 UL^−1 | 1051 UL^−1 | 1166 UL^−1 | 1211 UL^−1 | 1048 UL^−1 | 
